Measurements as given in patent EP1227090A1, “AMINE DERIVATIVES” (Tadeka Chemical Industries, Ltd., priority 1999, dated 2001).

What was measured:
Settings in all cases: 125I-somatostatin-14 binding inhibition, CHO cell membrane fraction, 25°C for 60 minutes, Hill plots
[1] = biological target: T1, human somatostatin receptor protein subtype 3 (SSTR3) (Homo sapiens, UniProt P32745); experiment: Measurement of the binding inhibition rate of 125I-Somatostatin (SSTR3)
T1 construct: expressed in transfected cells; host or cells: CHO (dhfr-) cells, strain SSTR3-15-19, plasmid pA1-11-SSTR3 (pAKKO-111 vector); membrane fraction
T1 sequence (P32745 whole entry): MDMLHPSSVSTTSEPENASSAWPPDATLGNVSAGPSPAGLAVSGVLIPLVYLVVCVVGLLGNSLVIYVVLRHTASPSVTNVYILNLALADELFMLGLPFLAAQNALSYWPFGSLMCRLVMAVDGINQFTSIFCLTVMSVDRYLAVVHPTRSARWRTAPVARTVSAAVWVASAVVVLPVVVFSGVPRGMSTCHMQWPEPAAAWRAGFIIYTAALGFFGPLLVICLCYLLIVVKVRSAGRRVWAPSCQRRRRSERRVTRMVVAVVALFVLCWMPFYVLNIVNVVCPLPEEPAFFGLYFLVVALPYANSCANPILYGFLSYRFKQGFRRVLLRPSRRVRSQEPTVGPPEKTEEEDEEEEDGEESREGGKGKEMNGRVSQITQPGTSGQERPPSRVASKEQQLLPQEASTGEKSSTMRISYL
Protocol: 1 x 10^6 CHO (dhfr^-) cells were cultured for 24 hours in HAM F12 medium containing 10% bovine fetal serum on a laboratory dish of 8 cm in diameter. The cells were transfected by 10 µg of the human SSTR3 DNA expression plasmid, pA-1-11-SSTR3, obtained under the above (5) using the calcium phosphate method. The medium was switched to DMEM medium containing 10% dialyzed bovine fetal serum 24 hours after the transfection to select the colony-forming cells (i.e. DHFR^+ cells) in this medium. Further, the selected cells were cloned from a single cell by the limiting dilution method and the somatostatin receptor protein expression activity of these cells was measured by the binding assay mentioned under the above (3). Thus, a highly somatostatin-binding cell strain, SSTR3-15-19, was selected.
(§1) Measurement of the binding inhibition rate of ^125I-Somatostatin
(§2) The receptor binding inhibition rate (%) of the subject compound was calculated using each of the membrane fractions prepared in Experimental Examples 1 and 2.
(§3) The membrane fraction was diluted with a buffer solution for assay to adjust the concentration to 3 µg/ml. The diluate was placed in tubes each in quantity of 173 µl. To this were simultaneously added 2 µl of a solution of a subject compound in DMSO and 25 µl of a 200 pM radioisotope-labeled somatostatin-14 (^125I-somatostatin-14: Amersham). For measurement of the maximum binding, a reaction mixture added with 2 µl of DMSO and 25 µl of a 200 pM ^125I-somatostatin was prepared. For measurement of non-specific binding, a reaction mixture added with 2 µl of a 100 µM somatostatin solution in DMSO and 25 µl of a 200 pM ^125I-somatostatin solution was prepared at the same time. The mixtures were allowed to react at 25°C for 60 minutes. Then, the reaction mixture was filtered by aspiration using a Whatman glass filter (GF-B) treated with polyethylenimine. After filtration, the radioactivity of ^125I-somatostatin-14 remaining on the filter paper was measured by a γ-counter. The binding inhibition rate (%) of each subject compound was calculated by the following formula: (TB-SB)/(TB-NSB) x 100 [formula] SB: radioactivity when a compound was added TB: maximum binding radioactivity NSB: non-specific binding radioactivity
(§4) The binding inhibition rates were measured by changing the concentrations of the subject compound, and the 50% inhibiting concentration of the subject compound (IC50 value) was calculated by the Hill plots.

[2] = biological target: T2, human somatostatin receptor protein subtype 5 (SSTR5) (Homo sapiens, UniProt P35346); experiment: Measurement of the binding inhibition rate of 125I-Somatostatin (SSTR5)
T2 construct: expressed in transfected cells; host or cells: CHO (dhfr-) cells, strain SSTR5-32-4, plasmid pA1-11-SSTR5 (pAKKO-111 vector); membrane fraction
T2 sequence (P35346 whole entry): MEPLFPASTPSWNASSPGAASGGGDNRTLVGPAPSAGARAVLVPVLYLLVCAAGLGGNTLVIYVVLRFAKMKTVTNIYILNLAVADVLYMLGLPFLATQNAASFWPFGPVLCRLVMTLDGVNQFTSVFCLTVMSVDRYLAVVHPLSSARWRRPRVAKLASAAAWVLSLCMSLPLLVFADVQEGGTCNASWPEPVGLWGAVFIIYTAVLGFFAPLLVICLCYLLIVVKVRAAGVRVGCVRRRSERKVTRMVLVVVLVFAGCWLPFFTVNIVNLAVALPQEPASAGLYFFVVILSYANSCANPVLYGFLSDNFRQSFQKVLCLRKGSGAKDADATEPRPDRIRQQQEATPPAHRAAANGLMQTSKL
Protocol: 1 x 10^6 CHO (dhfr^-) cells were cultured for 24 hours in HAM F12 medium containing 10% bovine fetal serum on a laboratory dish of 8 cm in diameter. To the cells was transfected 10 µg of the human SSTR5 cDNA expression plasmid, pA-1-11-SSTR5, obtained under the above (11) by the calcium phosphate method. The medium was switched to DMEM medium containing 10% dialyzed bovine fetal serum 24 hours after the transfection to select the colony-forming cells (i.e. DHFR^+ cells) in this medium. Further, the selected cells were cloned from a single cell by the limiting dilution method and the somatostatin receptor protein expression activity of these cells was measured by binding assay mentioned under the above (3). Thus, a highly somatostatin-biding cell strain, SSTR5-32-4, was selected.
as §1, §2, §3, §4

[3] = biological target: T3, human somatostatin receptor protein subtype 2 (SSTR2) (Homo sapiens, UniProt P30874); experiment: Measurement of the binding inhibition rate of 125I-Somatostatin (SSTR2)
T3 construct: expressed in transfected cells; host or cells: CHO (dhfr-) cells, strain SSTR2-HS5-9, plasmid pAC01 (pAKKO-111 vector); membrane fraction
T3 sequence (P30874 whole entry): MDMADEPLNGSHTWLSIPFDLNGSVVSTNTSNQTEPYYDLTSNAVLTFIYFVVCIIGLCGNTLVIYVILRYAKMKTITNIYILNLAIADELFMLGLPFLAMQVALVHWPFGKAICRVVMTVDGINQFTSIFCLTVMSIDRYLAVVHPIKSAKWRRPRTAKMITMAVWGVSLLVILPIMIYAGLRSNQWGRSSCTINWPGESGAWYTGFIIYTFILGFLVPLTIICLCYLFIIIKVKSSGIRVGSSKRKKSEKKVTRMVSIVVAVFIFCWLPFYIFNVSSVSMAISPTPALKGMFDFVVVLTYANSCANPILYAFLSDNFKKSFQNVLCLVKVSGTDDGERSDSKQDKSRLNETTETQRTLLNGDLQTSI
Protocol: 1 x 10^6 CHO (dhfr^-) cells were cultured for 24 hours in HAM F12 medium containing 10% bovine fetal serum on a laboratory dish of 8 cm in diameter. To the cells was transfected 10 µg of the human SSTR2 cDNA expression plasmid, pA-C01, obtained under the above (5) by the calcium phosphate method (Cell Phect Transfection Kit: Pharmacia). The medium was switched to DMEM medium containing 10% dialyzed bovine fetal serum 24 hours after the transfection to select the colony-forming cells (i.e. DHFR^+ cells) in this medium. Further, the selected cells were cloned from a single cell by the limiting dilution method and a cell strain which highly expresses human SSTR2, SSTR2-HS5-9, was selected.
as §1, §2, §3, §4

| Structure (SMILES) | IC50 [1] | IC50 [2] | IC50 [3] |
| --- | --- | --- | --- |
| CN(C)C[C@H]1Cc2cc(Cl)ccc2N(C(=O)[C@@H](Cc2c[nH]c3ccccc23)NC(=O)C2CCN(C(=O)c3cc4ccccc4n3C)CC2)C1 [Example 51, N-[(1R)-2-[(3R)-6-chloro-3-[(dimethylamino)-methyl]-1,2,3,4-tetrahydro-1-quinolinyl]-1-(1-indol-3-ylmethyl)-2-oxoethyl]-1-(1-methylindol-2-ylcarbonyl)-4-piperidinecarboxamide] | 80 nM | 400 nM | 0.3 nM |
| CN(C)C[C@H]1Cc2cc(Cl)ccc2N(C(=O)[C@@H](Cc2c[nH]c3ccccc23)NC(=O)N2CCC(C(=O)c3ccc(Cl)cc3)CC2)C1 [Example 130, 4-(4-chlorobenzoyl)-N-[(1R)-2-[(3R)-6-chloro-3-[(dimethylamino)methyl]-1,2,3,4-tetrahydro-1-quinolinyl]-1-(1-indol-3-ylmethyl)-2-oxoethyl]-1-piperidinecarboxamide] | 40 nM | 400 nM | 2 nM |
| CN(C)C[C@H]1Cc2cc(Cl)ccc2N(C(=O)[C@@H](Cc2c[nH]c3ccccc23)NC(=O)CCC2CCN(C(=O)c3ccccc3)CC2)C1 [Example 31, 3-(1-benzoyl-4-piperidinyl)-N-[(1R)-2-[(3R)-6-chloro-3-[(dimethylamino)methyl]-1,2,3,4-tetrahydro-1-quinolinyl]-1-(1-indol-3-ylmethyl)-2-oxoethyl]propanamide] | 60 nM | 300 nM | 2 nM |
| CN(C)CC1Cc2cc(Cl)ccc2N(C(=O)[C@@H](Cc2c[nH]c3ccccc23)NC(=O)C2CCN(C(=O)c3cc4ccccc4[nH]3)CC2)C1 (stereo partly drawn) [Example 14, N-[(1R)-2-[6-chloro-3-(R,S)-[(dimethylamino)methyl]-1,2,3,4-tetrahydro-1-quinolinyl]-1-(1-indol-3-ylmethyl)-2-oxoethyl]-1-(1-indol-2-ylcarbonyl)-4-piperidinecarboxamide] | 70 nM | 300 nM | 0.6 nM |
| CN(C)C[C@H]1Cc2cc(Cl)ccc2N(C(=O)[C@@H](Cc2c[nH]c3ccccc23)NC(=O)N2CCC(Oc3ccccc3)CC2)C1 [Example 145-2, N-[(1R)-2-[(3R)-6-chloro-3-[(dimethylamino)methyl]-1,2,3,4-tetrahydro-1-quinolinyl]-1-(1H-indol-3-ylmethyl)-2-oxoethyl]-4-phenoxyl-1-piperidinecarboxamide] | 10 nM | 200 nM | 1 nM |
